Results from US20240294467A1, “USP9X Inhibitors” (ProDeg, LLC, priority 2021, published 2024).
Like-named read-outs stand apart in the source and are kept apart here. Blank lines part the entries; values can stand above or below the molecule they belong to.

Experiments:
USP9X [1] = target: T1, USP9X (Homo sapiens (Human), UniProt Q93008); experiment: Biacore T200 surface plasmon resonance binding to immobilized USP9X; settings: 25° C.
Source text: The terms “inhibit” as used herein with respect to the activity of the USP9X inhibitor, refer to the ability to substantially antagonize, prohibit, prevent, restrain, slow, disrupt, alter, eliminate, stop, or reverse the progression or severity of, for example, the catalytic activity of a DUB such as USP9X, the survival or proliferation of a cancer cell, or a disease or condition associated with USP9X. […] In some embodiments, the compounds as described can inhibit USP9X by binding to an active site of USP9X. […] The binding activity is determined with a standard binding assay, such as a Biacore surface plasmon resonance instrument. […] The binding affinity KD is determined using a Biacore T200 instrument (GE Healthcare, Biacore). Ubiquitin aldehyde can be used as a reference in analyzing the inhibition results determined via Biacore. […]
USP9X was immobilized on a chip for surface plasmon resonance measurements via Biacore T200. Solutions of compound Compound 2A at various concentrations were flowed over the immobilized USP9X and the change in refractive index was monitored. […] The values of the maximum response for each concentration of Compound 2A were plotted and were consistent with a binding of the compound to a single site on USP9X with a dissociation equilibrium constant of 1.9 μM in reasonable agreement with value determined from the kinetic association and dissociation rates.
Target sequence in this assay (Q93008 whole entry): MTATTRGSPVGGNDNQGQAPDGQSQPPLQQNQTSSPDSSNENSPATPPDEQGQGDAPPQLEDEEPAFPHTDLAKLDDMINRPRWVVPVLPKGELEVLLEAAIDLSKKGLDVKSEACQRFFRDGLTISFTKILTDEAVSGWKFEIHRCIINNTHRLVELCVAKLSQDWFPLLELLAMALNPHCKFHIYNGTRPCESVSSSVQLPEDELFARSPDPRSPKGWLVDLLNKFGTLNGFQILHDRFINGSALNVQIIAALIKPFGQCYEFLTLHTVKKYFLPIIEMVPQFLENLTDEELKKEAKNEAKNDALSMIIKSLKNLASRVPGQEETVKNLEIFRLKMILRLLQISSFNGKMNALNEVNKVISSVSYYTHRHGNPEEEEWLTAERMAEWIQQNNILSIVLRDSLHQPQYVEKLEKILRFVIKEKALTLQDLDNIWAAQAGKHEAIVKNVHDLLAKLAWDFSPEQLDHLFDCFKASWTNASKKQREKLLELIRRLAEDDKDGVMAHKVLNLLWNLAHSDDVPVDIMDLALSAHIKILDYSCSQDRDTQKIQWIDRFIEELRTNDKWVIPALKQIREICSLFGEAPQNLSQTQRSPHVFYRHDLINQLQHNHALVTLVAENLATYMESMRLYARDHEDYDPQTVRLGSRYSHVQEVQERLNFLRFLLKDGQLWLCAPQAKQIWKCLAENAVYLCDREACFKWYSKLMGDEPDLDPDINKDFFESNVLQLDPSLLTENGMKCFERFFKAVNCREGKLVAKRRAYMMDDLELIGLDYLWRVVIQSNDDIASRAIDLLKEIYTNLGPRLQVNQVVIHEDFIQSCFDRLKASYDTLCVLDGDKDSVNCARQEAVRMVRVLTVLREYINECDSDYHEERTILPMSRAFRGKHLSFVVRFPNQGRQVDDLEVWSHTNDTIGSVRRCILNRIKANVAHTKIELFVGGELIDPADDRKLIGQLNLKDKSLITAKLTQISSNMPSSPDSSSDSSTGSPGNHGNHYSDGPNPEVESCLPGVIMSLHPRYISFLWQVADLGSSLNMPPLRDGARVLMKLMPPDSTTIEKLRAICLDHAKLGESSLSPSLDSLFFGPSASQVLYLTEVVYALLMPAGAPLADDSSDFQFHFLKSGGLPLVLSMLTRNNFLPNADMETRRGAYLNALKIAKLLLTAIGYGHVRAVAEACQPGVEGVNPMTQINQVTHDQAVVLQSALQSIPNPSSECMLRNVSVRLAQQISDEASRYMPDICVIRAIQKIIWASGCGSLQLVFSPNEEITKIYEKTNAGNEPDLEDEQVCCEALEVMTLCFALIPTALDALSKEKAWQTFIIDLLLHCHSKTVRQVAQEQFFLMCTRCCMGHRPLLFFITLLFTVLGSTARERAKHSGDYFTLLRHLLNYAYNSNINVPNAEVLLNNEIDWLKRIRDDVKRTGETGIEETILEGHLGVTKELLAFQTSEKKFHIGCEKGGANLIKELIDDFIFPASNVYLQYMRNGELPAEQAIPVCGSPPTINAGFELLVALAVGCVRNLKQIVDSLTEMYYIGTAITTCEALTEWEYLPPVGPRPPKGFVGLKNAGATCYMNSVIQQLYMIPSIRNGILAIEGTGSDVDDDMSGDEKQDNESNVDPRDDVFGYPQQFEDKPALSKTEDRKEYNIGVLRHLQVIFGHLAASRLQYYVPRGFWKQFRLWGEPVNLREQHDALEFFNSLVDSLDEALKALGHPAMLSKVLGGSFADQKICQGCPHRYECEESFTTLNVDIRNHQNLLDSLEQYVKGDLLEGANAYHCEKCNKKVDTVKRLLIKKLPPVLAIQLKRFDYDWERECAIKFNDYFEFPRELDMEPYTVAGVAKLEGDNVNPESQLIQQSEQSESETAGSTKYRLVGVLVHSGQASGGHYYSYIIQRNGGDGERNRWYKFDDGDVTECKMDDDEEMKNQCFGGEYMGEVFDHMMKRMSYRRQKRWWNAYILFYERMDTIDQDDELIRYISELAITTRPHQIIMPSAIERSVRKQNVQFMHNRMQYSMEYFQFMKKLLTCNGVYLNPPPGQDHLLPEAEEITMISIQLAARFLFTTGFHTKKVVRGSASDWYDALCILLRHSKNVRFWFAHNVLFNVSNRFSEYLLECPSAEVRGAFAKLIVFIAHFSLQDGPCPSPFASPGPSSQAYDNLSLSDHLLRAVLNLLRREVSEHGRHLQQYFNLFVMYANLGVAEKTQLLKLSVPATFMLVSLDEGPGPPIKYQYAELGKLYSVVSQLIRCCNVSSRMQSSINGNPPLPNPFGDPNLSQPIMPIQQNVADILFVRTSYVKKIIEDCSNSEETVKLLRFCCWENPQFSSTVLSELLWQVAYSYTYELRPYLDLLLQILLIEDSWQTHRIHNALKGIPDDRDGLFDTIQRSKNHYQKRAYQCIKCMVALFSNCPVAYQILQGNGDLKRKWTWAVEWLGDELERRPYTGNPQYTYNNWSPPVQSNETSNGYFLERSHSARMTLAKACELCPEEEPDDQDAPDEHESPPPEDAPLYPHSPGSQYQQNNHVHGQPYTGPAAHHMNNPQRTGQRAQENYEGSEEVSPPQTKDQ

carbonic anhydrase = experiment: Biacore binding to immobilized carbonic anhydrase (non-specific binding control)
USP9X [2] = target: T1, USP9X; experiment: Steady-state enzyme inhibition kinetics of USP9X; format: biochemical
Source text: The data were fit to a general model for enzyme inhibition (FIG. 1E) so the values of the parameters determined from the assays specified the mode of inhibition. For example, in the case of α=1 and β=0, it corresponded to purely non-competitive inhibition. For α=infinity and p=1, it corresponded to purely competitive inhibition. The values of all the parameters, KS, KI, kcat, α, and β could be determined from the steady state measurements. The enzyme reactions were set up as described in the Inhibiting the catalytic activity of USP9X section. The concentration of the substrate ubqiutin-rhodamine110 was varied. The initial rates of the reactions were determined at several concentrations of the inhibitor Compound 2A. In order to determine the values of the parameters KS and kcat, the reaction rates in the absence of the inhibitor Compound 2A, the initial reaction rate data were fit to the standard Michaelis-Menten equation v=Vmax [S]/(Km+[S]). The values of α and β could then be determined by fitting the initial rate data of the enzyme reaction at various concentrations of Compound 2A to a modified version of the Michaelis-Menten equation, designating both Vmax and KS apparent to distinguish the apparent values of the parameters determined from these plots to the true values for these parameters determined from the steady state kinetics in the absence of Compound 2A. The values of α and β could be determined from the variation of the slopes and intercepts of the series of double reciprocal plots of 1/v versus 1/[S] for each concentration of Compound 2A. […] The two values determined for KI were from the two different plots.
The two values for KI were determined by two different methods for determining this parameter from the kinetic data: 1 represented a value determined from the slope of the 1/A intercept vs 1/[I] plot; 2 represented a value determined from the y intercept of the 1/A slope vs 1/[I] plot. […] Only the values of the parameters varied for the compounds.
Target sequence in this assay (Q93008 whole entry): as above

USP9X [3] = target: T1, USP9X; experiment: USP9X enzyme activity assay, ubiquitin-rhodamine110 substrate
Target sequence in this assay (Q93008 whole entry): as above
Method: The inhibition property of compound Compound 1A was evaluated in assays measuring the ability of USP9X to catalyze the hydrolysis of the amide bond between the C terminal carboxylate of ubiquitin and rhodamine110 of the fluorogenic substrate ubiquitin-rhodamine 110. To the wells of a 96 well reaction plate was added 12.5 μL USP9X solution (1.3 nM) in assay buffer (100 mM NaCl, 1 mM DTT, 0.1% bovine serum albumin, 0.05% Tween 20, 50 mM Tris, pH 7.5). 12.5 μL of Compound 1A in assay buffer (4×final concentration) was added to the wells containing the USP9X solution, and the solution was gently mixed by pipetting up and down several times. The plate was sealed and incubated at room temperature for 20 minutes.
Then 25 μL of the 1 μM substrate (ubiquitin-rhodaminel10) solution was added in assay buffer. The final substrate concentration was 0.5 μM. […] The slope for the rate of change of the fluorescence was determined and plotted vs the concentration of Compound 1A.
USP9X enzyme assays were set up in a 96 well plate to assess the abilities of Compound 3A and Compound 4A to inhibit the activity of USP9X, respectively. Ubiquitin-rhodamine110 was used as the substrate and ubiquitin aldehyde was included in the assay as a positive control.
Purified recombinant USPx9 (R&D Systems) in 50 mM Tris buffer pH 7.5, 1 mM DTT, 100 mM NaCl, 0.05% Tween 20 and 0/1% BSA is used at a concentration of 0.325 nM with 0.5 μM ubiquitin-rhodamine (R&D Systems).

66 cancer cell lines = experiment: ONCOLINES Profiler, whole panel; format: cell-based; settings: in 3 of 66 cell lines
Source text: The sensitivities of multiple cancer cells can be determined by screening the compounds on a cancer cell line panel, such as an ONCOLINES™ Profiler (Netherlands Translational Research Center) assayed with various tumor cell lines. For more information on ONCOLINES™ methods, see https://www.oncolines.com/oncolines/oncolines-explained-facts/. […] For example, Compound 7A inhibited the proliferation of 57 of the 66 cell lines being tested. […] “A tumor cell line sensitive to the compounds” is referred to that the proliferation of a tumor cell line, when contacted with the compounds, is inhibited by at least 50%, at least 60%, at least 70%, at least 80%, at least 85%, at least 90%, at least 91%, at least 92%, at least 93%, at least 94%, at least 95%, at least 96%, at least 97%, at least 98%, at least 99%, or 100%.
(§1) The compounds were profiled on an ONCOLINES™ Profiler (Netherlands Translational Research Center) assayed with 66 cancer cell lines to determine if they were capable of inhibiting the proliferation of these cancer cells.
(§2) To further evaluate potency of the compounds, they were compared with the USP9X inhibitor WP 1130 by screening both the compounds and WP1130 on a 66-cancer cell line panel ONCOLINES™ Profiler.

BT-549 = experiment: ONCOLINES Profiler proliferation; format: cell-based, human; settings: BT-549, breast ductal carcinoma
Source text: as §1, §2

A-172 = experiment: ONCOLINES Profiler proliferation; format: cell-based; settings: A-172, glioblastoma
Source text: as §1, §2

A549 = experiment: ONCOLINES Profiler proliferation; format: cell-based; settings: A549, lung
Source text: as §1, §2

BT-20 = experiment: ONCOLINES Profiler proliferation; format: cell-based; settings: BT-20, breast carcinoma
Source text: as §1, §2

CCRF-CEM = experiment: ONCOLINES Profiler proliferation; format: cell-based; settings: acute lymphoblastic leukemia
Source text: as §1, §2

DU 145 = experiment: ONCOLINES Profiler proliferation; format: cell-based; settings: DU 145, prostate carcinoma
Source text: as §1, §2

H82 = experiment: ONCOLINES Profiler proliferation; format: cell-based; settings: H82, small cell lung
Source text: as §1, §2

Hs 57BT = experiment: ONCOLINES Profiler proliferation; format: cell-based; settings: Hs 57BT (Hs578T), breast carcinoma
Source text: as §1, §2

LoVo = experiment: ONCOLINES Profiler proliferation; format: cell-based; settings: colorectal adenocarcinoma
Source text: as §1, §2

MOLT-4 = experiment: ONCOLINES Profiler proliferation; format: cell-based; settings: MOLT-4, acute lymphoblastic leukemia
Source text: as §1, §2

RKO = experiment: ONCOLINES Profiler proliferation; format: cell-based; settings: colon carcinoma
Source text: as §1, §2

RPMI-7951 = experiment: ONCOLINES Profiler proliferation; format: cell-based; settings: RPMI-7951, malignant melanoma
Source text: as §1, §2

USP9X [4] = target: T1, USP9X; settings: cited from earlier work
Target sequence in this assay (Q93008 whole entry, species assumed): as the sequence (Q93008 whole entry) above

USP5 = USP5 (Homo sapiens (Human), UniProt P45974); settings: cited from earlier work
USP14 = USP14 (Homo sapiens (Human), UniProt P54578); settings: cited from earlier work
UCH-L1 = UCH-L1 (Homo sapiens (Human), UniProt P09936); settings: cited from earlier work
UCH37 = UCH37 (Homo sapiens (Human), UniProt Q9Y5K5); settings: cited from earlier work
UCH37, sequence (Q9Y5K5 whole entry, species assumed): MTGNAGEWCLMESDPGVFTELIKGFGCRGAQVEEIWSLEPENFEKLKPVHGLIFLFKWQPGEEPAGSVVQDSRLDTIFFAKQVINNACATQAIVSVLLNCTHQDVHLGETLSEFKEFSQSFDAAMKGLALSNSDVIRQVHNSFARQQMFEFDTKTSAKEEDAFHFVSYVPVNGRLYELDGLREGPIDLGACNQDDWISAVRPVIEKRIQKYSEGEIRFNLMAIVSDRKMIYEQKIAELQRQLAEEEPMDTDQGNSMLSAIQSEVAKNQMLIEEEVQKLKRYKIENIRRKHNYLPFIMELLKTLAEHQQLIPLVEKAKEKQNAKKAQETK

UCH-L1, sequence (P09936 whole entry, species assumed): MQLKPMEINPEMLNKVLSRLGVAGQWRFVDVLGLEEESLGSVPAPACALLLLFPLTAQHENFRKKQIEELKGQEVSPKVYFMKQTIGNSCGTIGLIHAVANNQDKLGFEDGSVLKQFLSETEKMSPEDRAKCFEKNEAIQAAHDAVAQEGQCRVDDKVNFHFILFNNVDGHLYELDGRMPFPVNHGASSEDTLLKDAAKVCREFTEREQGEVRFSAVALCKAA
USP14, sequence (P54578 whole entry, species assumed): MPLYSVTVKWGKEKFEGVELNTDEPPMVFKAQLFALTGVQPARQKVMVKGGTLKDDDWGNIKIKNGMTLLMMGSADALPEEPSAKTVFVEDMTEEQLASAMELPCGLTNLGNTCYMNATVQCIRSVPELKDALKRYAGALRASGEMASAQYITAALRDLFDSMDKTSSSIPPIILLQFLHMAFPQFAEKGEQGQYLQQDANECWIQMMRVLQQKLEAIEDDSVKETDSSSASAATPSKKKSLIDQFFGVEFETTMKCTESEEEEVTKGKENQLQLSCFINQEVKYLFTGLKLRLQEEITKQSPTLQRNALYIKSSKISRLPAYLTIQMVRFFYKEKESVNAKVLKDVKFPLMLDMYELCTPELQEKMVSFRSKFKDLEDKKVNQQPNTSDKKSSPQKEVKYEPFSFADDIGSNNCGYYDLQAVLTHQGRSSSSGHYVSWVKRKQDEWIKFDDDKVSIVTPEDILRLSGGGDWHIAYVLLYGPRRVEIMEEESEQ
USP5, sequence (P45974 whole entry, species assumed): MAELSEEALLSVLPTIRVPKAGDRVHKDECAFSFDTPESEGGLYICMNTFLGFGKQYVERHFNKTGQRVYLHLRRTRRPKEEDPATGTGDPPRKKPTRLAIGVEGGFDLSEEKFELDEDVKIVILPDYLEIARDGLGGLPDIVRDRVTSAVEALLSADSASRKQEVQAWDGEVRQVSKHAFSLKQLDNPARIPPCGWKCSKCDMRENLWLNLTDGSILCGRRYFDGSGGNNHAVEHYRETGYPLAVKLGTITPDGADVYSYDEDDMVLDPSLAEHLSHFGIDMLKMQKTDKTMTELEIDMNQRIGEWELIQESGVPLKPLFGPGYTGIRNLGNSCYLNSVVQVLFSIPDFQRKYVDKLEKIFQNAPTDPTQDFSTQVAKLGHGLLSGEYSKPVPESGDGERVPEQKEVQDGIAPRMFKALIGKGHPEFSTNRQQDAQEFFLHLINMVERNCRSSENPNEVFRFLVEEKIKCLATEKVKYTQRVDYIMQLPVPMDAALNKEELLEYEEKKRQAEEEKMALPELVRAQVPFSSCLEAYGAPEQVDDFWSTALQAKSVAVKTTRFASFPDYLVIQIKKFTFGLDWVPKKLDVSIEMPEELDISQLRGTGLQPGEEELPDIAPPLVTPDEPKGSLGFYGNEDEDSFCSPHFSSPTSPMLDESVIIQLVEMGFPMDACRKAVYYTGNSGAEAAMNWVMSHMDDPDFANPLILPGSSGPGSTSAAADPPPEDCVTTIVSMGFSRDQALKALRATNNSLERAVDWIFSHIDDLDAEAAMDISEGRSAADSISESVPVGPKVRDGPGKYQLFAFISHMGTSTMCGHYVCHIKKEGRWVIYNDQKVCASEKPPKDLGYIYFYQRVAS

Structure (SMILES): CC(C)(C)C[C@@H]1NC(=O)c2cccc(c2)CNC(=O)c2ccc(cc2)OCCNC(=O)CC(C)(C)CC(=O)N[C@H](C(=O)O)Cc2ccc(cc2)NC1=O [Compound 2A]
- Kd (USP9X [1]; read-out: dissociation equilibrium constant from maximum response vs concentration, single site): 1.9 µM
- Kd (USP9X [1]; read-out: equilibrium dissociation constant KD from ratio of dissociation to association rate constant): 0.48 µM
- binding to immobilized carbonic anhydrase (carbonic anhydrase): did not bind
- KS (USP9X [2]): 0.95 µM
- VMAX RFU/min (USP9X [2]): 310 RFU/min
- mode of inhibition (USP9X [2]): hyperbolic mixed inhibition
- α (USP9X [2]): 1.73
- β (USP9X [2]): 0.71
- Ki (USP9X [2]; from the slope of the 1/Δ intercept vs 1/[I] plot, read-out: KI, nM (1)): 120 nM
- Ki (USP9X [2]; from the y intercept of the 1/Δ slope vs 1/[I] plot, read-out: KI, nM (2)): 290 nM
- reduction of USP9X activity (USP9X [3]; higher concentrations of compound (>10 μM)): approximately 60%
- IC50 (USP9X [3]; read-out: IC50 for the inhibition of USP9X activity, ubiquitin-rhodamine110 substrate): 390 nM
- IC50 (USP9X [3]; read-out: USP9X IC50 nM, Table 2): 390 nM

- IC50 (BT-549): 5.4 µM
- IC50 (A549): 14 µM
- IC50 (BT-20): 5.1 µM
- IC50 (CCRF-CEM): 4.4 µM
- IC50 (LoVo): 5.5 µM
- IC50 (MOLT-4): 4 µM
Structure (SMILES): CCC[C@H](NC(=O)/C(C#N)=C/c1cccc(Br)n1)c1ccccc1 [WP1130, reference compound]
- fold more potent than Compound 7A (66 cancer cell lines): above 4 fold
- IC50 (A-172): 5.6 µM
- IC50 (DU 145): 9.6 µM
- IC50 (H82): 6.6 µM
- IC50 (Hs 57BT): 6.3 µM
- IC50 (RKO): 4.3 µM
- IC50 (RPMI-7951): 4.2 µM
- inhibits USP9X (USP9X [4]): inhibited
- inhibits USP5 (USP5): inhibited
- inhibits USP14 (USP14): inhibited
- inhibits UCH-L1 (UCH-L1): inhibited
- inhibits UCH37 (UCH37): inhibited
